In patent publication US12077503B2, “Substituted cyclic amides and their use as herbicides” (FMC CORPORATION, priority 2015, dated 2024):

Columns and labels:
Format in all cases: in vivo
[1] = tested on: pigweed (Amaranthus retroflexus); assay: Test A postemergence; details: Amaranthus retroflexus, post-emergence, 240 h, 125 g ai/ha, Postemergence; visual injury after approximately 10 d; 0 to 100 scale where 0 is no effect and 100 is complete control; read-out: Plant response rating, Pigweed
In short: (§1)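 Preemergence soil spray on seeded pots or post-emergence spray on 1–2 leaf plants, in loam–sand blend. Greenhouse ~10 d. Visual rating 0–100 against untreated plants.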

[2] = tested on: ragweed (common ragweed, Ambrosia elatior); assay: Test A postemergence; details: Ambrosia artemisiifolia, post-emergence, 240 h, 125 g ai/ha, Postemergence; visual injury after approximately 10 d; 0 to 100 scale where 0 is no effect and 100 is complete control; read-out: Plant response rating, Ragweed
In short: as §1

[3] = tested on: Galium (catchweed bedstraw, Galium aparine); assay: Test A postemergence; details: Galium, post-emergence, 240 h, 125 g ai/ha, Postemergence; visual injury after approximately 10 d; 0 to 100 scale where 0 is no effect and 100 is complete control; read-out: Plant response rating, Galium
In short: as §1

[4] = tested on: ryegrass, Italian (Italian ryegrass, Lolium multiflorum); assay: Test A postemergence; details: Lolium multiflorum, post-emergence, 240 h, 125 g ai/ha, Postemergence; visual injury after approximately 10 d; 0 to 100 scale where 0 is no effect and 100 is complete control; read-out: Plant response rating, Ryegrass, Italian
In short: as §1

[5] = tested on: wheat (Triticum aestivum); assay: Test A postemergence; details: Triticum aestivum, post-emergence, 240 h, 125 g ai/ha, Postemergence; visual injury after approximately 10 d; 0 to 100 scale where 0 is no effect and 100 is complete control; read-out: Plant response rating, Wheat
In short: as §1

[6] = tested on: giant foxtail (Setaria faberii); assay: Test A postemergence; details: Setaria faberi, post-emergence, 240 h, 125 g ai/ha, Postemergence; visual injury after approximately 10 d; 0 to 100 scale where 0 is no effect and 100 is complete control; read-out: Plant response rating, Foxtail, Giant
In short: as §1

[7] = tested on: blackgrass (Alopecurus myosuroides); assay: Test A postemergence; details: Alopecurus myosuroides, post-emergence, 240 h, 125 g ai/ha, Postemergence; visual injury after approximately 10 d; 0 to 100 scale where 0 is no effect and 100 is complete control; read-out: Plant response rating, Blackgrass
In short: as §1

[8] = tested on: barnyardgrass (Echinochloa crus-galli); assay: Test A postemergence; details: Echinochloa crus-galli, post-emergence, 240 h, 125 g ai/ha, Postemergence; visual injury after approximately 10 d; 0 to 100 scale where 0 is no effect and 100 is complete control; read-out: Plant response rating, Barnyardgrass
In short: as §1

corn (Zea mays) = assay: Test A postemergence; details: Zea mays, post-emergence, 240 h, 125 g ai/ha, Postemergence; visual injury after approximately 10 d; 0 to 100 scale where 0 is no effect and 100 is complete control
In short: as §1

Kochia (Kochia scoparia) [9] = assay: Test A postemergence; details: Bassia scoparia, post-emergence, 240 h, 125 g ai/ha, Postemergence; visual injury after approximately 10 d; 0 to 100 scale where 0 is no effect and 100 is complete control; read-out: Plant response rating, Kochia
In short: as §1

[10] = tested on: barnyardgrass (Echinochloa crus-galli); assay: Test B flooded paddy test; details: Echinochloa crus-galli, Flood, 250 g ai/ha; scale of 0 to 100 where 0 is no effect and 100 is complete control; read-out: Barnyardgrass plant response rating
In short: (§2)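 Rating scale 0–100 (visual, vs untreated controls) after a 13–15 d greenhouse period; application to the flood layer, 3 cm above soil and maintained; plants at 2-leaf stage when treated.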

rice (Oryra sativa) = assay: Test B flooded paddy test; details: Oryza sativa, Flood, 250 g ai/ha; scale of 0 to 100 where 0 is no effect and 100 is complete control; read-out: Rice plant response rating
In short: as §2

[11] = tested on: sedge, umbrella (small-flower umbrella sedge, Cyperus difformis); assay: Test B flooded paddy test; details: Cyperus difformis, Flood, 250 g ai/ha; scale of 0 to 100 where 0 is no effect and 100 is complete control; read-out: Sedge, Umbrella plant response rating
In short: as §2

[12] = tested on: ducksalad (Heteranthera limosa); assay: Test B flooded paddy test; details: Heteranthera limosa, Flood, 250 g ai/ha; scale of 0 to 100 where 0 is no effect and 100 is complete control; read-out: Ducksalad plant response rating
In short: as §2

[13] = tested on: pigweed (Amaranthus retroflexus); assay: Test A preemergence; details: Amaranthus retroflexus, pre-emergence, 240 h
[14] = tested on: ragweed (common ragweed, Ambrosia elatior); assay: Test A preemergence; details: Ambrosia artemisiifolia, pre-emergence, 240 h
In short: as §1

[15] = tested on: ryegrass, Italian (Italian ryegrass, Lolium multiflorum); assay: Test A preemergence; details: Lolium multiflorum, pre-emergence, 240 h
In short: as §1

[16] = tested on: giant foxtail (Setaria faberii); assay: Test A preemergence; details: Setaria faberi, pre-emergence, 240 h
In short: as §1

[17] = tested on: barnyardgrass (Echinochloa crus-galli); assay: Test A preemergence; details: Echinochloa crus-galli, pre-emergence, 240 h
In short: as §1

Kochia (Kochia scoparia) [18] = assay: Test A preemergence; details: Bassia scoparia, pre-emergence, 240 h
In short: as §1

## Cc1ccc(NC(=O)[C@H]2C(=O)N(C)C[C@@H]2c2cc(F)cc(F)c2)cc1 [Compound 967]
[1]
  pest or weed control at 125 g/ha: 0%
[2]
  pest or weed control at 125 g/ha: 0%
[3]
  pest or weed control at 125 g/ha: 0%
[4]
  pest or weed control at 125 g/ha: 0%
[5]
  plant injury at 125 g/ha: 0%
[6]
  pest or weed control at 125 g/ha: 80%
[7]
  pest or weed control at 125 g/ha: 0%
[8]
  pest or weed control at 125 g/ha: 80%
Corn (Zea mays)
  Corn plant response rating (crop injury, 0 = no effect, 100 = complete kill) at 125 g/ha: 0%
Kochia (Kochia scoparia) [9]
  pest or weed control at 125 g/ha: 0%
[10]
  pest or weed control at 250 g/ha: 0%
Rice (Oryra sativa)
  pest or weed control at 250 g/ha: 0%
[11]
  pest or weed control at 250 g/ha: 0%
[12]
  pest or weed control at 250 g/ha: 35%
[13]; 125 g ai/ha, Preemergence, visual injury rating after approximately 10 d, read-out: Pigweed plant response rating (0 to 100 scale, 0 is no effect, 100 is complete control)
  pest or weed control at 125 g/ha: 0%
[13]; 500 g ai/ha, preemergence, visual injury rating about 10 d after treatment, 0 to 100 scale (0 no effect, 100 complete control), read-out: Pigweed plant response rating
  pest or weed control at 500 g/ha: 0%
[14]; 125 g ai/ha, Preemergence, visual injury rating after approximately 10 d, read-out: Ragweed plant response rating (0 to 100 scale, 0 is no effect, 100 is complete control)
  pest or weed control at 125 g/ha: 0%
[14]; 500 g ai/ha, preemergence, visual injury rating about 10 d after treatment, 0 to 100 scale (0 no effect, 100 complete control), read-out: Ragweed plant response rating
  pest or weed control at 500 g/ha: 0%
[15]; 125 g ai/ha, Preemergence, visual injury rating after approximately 10 d, read-out: Ryegrass, Italian plant response rating (0 to 100 scale, 0 is no effect, 100 is complete control)
  pest or weed control at 125 g/ha: 0%
[15]; 500 g ai/ha, preemergence, visual injury rating about 10 d after treatment, 0 to 100 scale (0 no effect, 100 complete control), read-out: Ryegrass, Italian plant response rating
  pest or weed control at 500 g/ha: 0%
[16]; 125 g ai/ha, Preemergence, visual injury rating after approximately 10 d, read-out: Foxtail, Giant plant response rating (0 to 100 scale, 0 is no effect, 100 is complete control)
  pest or weed control at 125 g/ha: 80%
[16]; 500 g ai/ha, preemergence, visual injury rating about 10 d after treatment, 0 to 100 scale (0 no effect, 100 complete control), read-out: Foxtail, Giant plant response rating
  pest or weed control at 500 g/ha: 90%
[17]; 125 g ai/ha, Preemergence, visual injury rating after approximately 10 d, read-out: Barnyardgrass plant response rating (0 to 100 scale, 0 is no effect, 100 is complete control)
  pest or weed control at 125 g/ha: 80%
[17]; 500 g ai/ha, preemergence, visual injury rating about 10 d after treatment, 0 to 100 scale (0 no effect, 100 complete control), read-out: Barnyardgrass plant response rating
  pest or weed control at 500 g/ha: 90%
Kochia (Kochia scoparia) [18]; 125 g ai/ha, Preemergence, visual injury rating after approximately 10 d, read-out: Kochia plant response rating (0 to 100 scale, 0 is no effect, 100 is complete control)
  pest or weed control at 125 g/ha: 0%
Kochia (Kochia scoparia) [18]; 500 g ai/ha, preemergence, visual injury rating about 10 d after treatment, 0 to 100 scale (0 no effect, 100 complete control), read-out: Kochia plant response rating
  pest or weed control at 500 g/ha: 0%
